# Data as given in patent US20020137929A1, “1 - (3-heterocyclylphenyl) isothiourea, -isourea, -guanidine and -amidine herbicidal agents” (Intellectual Property Department, BASF Aktiengesellschaft, priority 1998, published 2002).
# Legend:
# AMBEL (Ragweed, Common) [1] = test: Postemergence herbicidal evaluation; type: in vivo, Ambrosia artemisifolia; details: postemergence
# Summary of the method: (§1)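 Compound is applied as a foliar spray to seedlings about two weeks old, formulated in equal parts acetone and water with 0.5% TWEEN 20 and delivered at 40 psi to give about 0.0156–0.500 kg per hectare. Injury is rated visually 0–9 after four to five weeks.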
# [2] = tested on: IPOHE (Morningglory, Ivyleaf); test: Postemergence herbicidal evaluation; type: in vivo, Ipomoea hederacea; details: postemergence
# Summary of the method: as §1
# [3] = tested on: GLXMAW (Soybean, Williams); test: Postemergence herbicidal evaluation; type: in vivo, Glycine max, (L.) Merr. cv Williams; details: postemergence
# Summary of the method: as §1
# ZEAMX (Corn, Field) = test: Postemergence herbicidal evaluation; type: in vivo, Zea mays; details: postemergence
# Summary of the method: as §1
# ABUTH (Velvetleaf) = test: Preemergence herbicidal evaluation; type: in vivo, Abutilon theophrasti; details: rated 4-5 weeks after treatment
# Summary of the method: (§2)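 Seeds were planted in potting soil in cups, then sprayed preemergence with the test compound in aqueous acetone at about 0.0156 to 0.500 kg per hectare. Cups were kept under greenhouse conditions and visually rated 4–5 weeks after treatment on a 0–9 scale against an untreated control.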
# AMBEL (Ragweed, Common) [4] = test: Preemergence herbicidal evaluation; type: in vivo, Ambrosia artemisifolia; details: rated 4-5 weeks after treatment
# Summary of the method: as §2
# CASOB (Sicklepod) = test: Preemergence herbicidal evaluation; type: in vivo, Cassia obtusifolia; details: rated 4-5 weeks after treatment
# Summary of the method: as §2
# GALAP (Galium) = test: Preemergence herbicidal evaluation; type: in vivo, Galium aparine; details: rated 4-5 weeks after treatment
# Summary of the method: as §2
# ECHCG (Barnyardgrass) = test: Preemergence herbicidal evaluation; type: in vivo, Echinochloa crus-galli; details: rated 4-5 weeks after treatment
# Summary of the method: as §2
# SETVI (Foxtail, Green) = test: Preemergence herbicidal evaluation; type: in vivo, Setaria viridis; details: rated 4-5 weeks after treatment
# Summary of the method: as §2
# [5] = tested on: GLXMAW (Soybean, Williams); test: Preemergence herbicidal evaluation; type: in vivo, Glycine max, (L.) Merr. cv Williams; details: rated 4-5 weeks after treatment
# Summary of the method: as §2
# CYPSE (Flatsedge) = test: Preemergence weed control under flooded paddy conditions; type: in vivo, Cyperus serotinus; details: rated 3-4 weeks after treatment
# Summary of the method: (§3)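 Flooded-pot preemergence screen with silt loam and seeds in the upper 0.5 cm. Dose about 0.0313 to 0.500 kg/ha, delivered into flood water; visual 0-9 score after 3 to 4 weeks.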
# [6] = tested on: SAGPY (Arrowhead (Pygmaea)); test: as above; type: in vivo, Sagittaria pygmaea; details: rated 3-4 weeks after treatment
# Summary of the method: as §3
compound,measurement,setting,value
"Cn1c(C(F)(F)F)cc(=O)n(-c2cc(N=C3SCC(=O)N3C3CCCC3)c(Cl)cc2F)c1=O [Compound 166, 3-{4-Chloro-5-[(3-cyclopentyl-4-oxo-2-thiazolidinylidene)amino]-2-fluorophenyl}-1-methyl-6-(trifluoromethyl)-2,4(1H,3H)-pyrimidinedione]",Herbicidal rating AMBEL,"AMBEL (Ragweed, Common) [1]; rate 0.0156 kg/ha",0.0
same,Herbicidal rating AMBEL,"AMBEL (Ragweed, Common) [1]; rate 0.0313 kg/ha",3.0
same,Herbicidal rating AMBEL,"AMBEL (Ragweed, Common) [1]; rate 0.0625 kg/ha",6.0
same,Herbicidal rating AMBEL,"AMBEL (Ragweed, Common) [1]; rate 0.1250 kg/ha",7.0
same,Herbicidal rating IPOHE,[2]; rate 0.0156 kg/ha,0.0
same,Herbicidal rating IPOHE,[2]; rate 0.0313 kg/ha,2.0
same,Herbicidal rating IPOHE,[2]; rate 0.0625 kg/ha,2.0
same,Herbicidal rating IPOHE,[2]; rate 0.1250 kg/ha,7.0
same,Herbicidal rating GLXMAW,[3]; rate 0.0156 kg/ha,4.0
same,Herbicidal rating GLXMAW,[3]; rate 0.0313 kg/ha,3.5
same,Herbicidal rating GLXMAW,[3]; rate 0.0625 kg/ha,4.0
same,Herbicidal rating GLXMAW,[3]; rate 0.1250 kg/ha,5.0
same,Herbicidal rating ZEAMX,"ZEAMX (Corn, Field); rate 0.0156 kg/ha",3.0
same,Herbicidal rating ZEAMX,"ZEAMX (Corn, Field); rate 0.0313 kg/ha",3.0
same,Herbicidal rating ZEAMX,"ZEAMX (Corn, Field); rate 0.0625 kg/ha",3.5
same,Herbicidal rating ZEAMX,"ZEAMX (Corn, Field); rate 0.1250 kg/ha",4.5
same,Preemergence herbicidal rating ABUTH,ABUTH (Velvetleaf); 0.0156 kg/ha,0.0
same,Preemergence herbicidal rating ABUTH,ABUTH (Velvetleaf); 0.0313 kg/ha,2.0
same,Preemergence herbicidal rating ABUTH,ABUTH (Velvetleaf); 0.0625 kg/ha,1.0
same,Preemergence herbicidal rating ABUTH,ABUTH (Velvetleaf); 0.1250 kg/ha,7.0
same,Preemergence herbicidal rating ABUTH,ABUTH (Velvetleaf); 0.2500 kg/ha,9.0
same,Preemergence herbicidal rating ABUTH,ABUTH (Velvetleaf); 0.5000 kg/ha,9.0
same,Preemergence herbicidal rating AMBEL,"AMBEL (Ragweed, Common) [4]; 0.0156 kg/ha",1.0
same,Preemergence herbicidal rating AMBEL,"AMBEL (Ragweed, Common) [4]; 0.0313 kg/ha",0.0
same,Preemergence herbicidal rating AMBEL,"AMBEL (Ragweed, Common) [4]; 0.0625 kg/ha",3.0
same,Preemergence herbicidal rating AMBEL,"AMBEL (Ragweed, Common) [4]; 0.1250 kg/ha",6.0
same,Preemergence herbicidal rating AMBEL,"AMBEL (Ragweed, Common) [4]; 0.2500 kg/ha",7.0
same,Preemergence herbicidal rating AMBEL,"AMBEL (Ragweed, Common) [4]; 0.5000 kg/ha",7.0
same,Preemergence herbicidal rating CASOB,CASOB (Sicklepod); 0.0156 kg/ha,0.0
same,Preemergence herbicidal rating CASOB,CASOB (Sicklepod); 0.0313 kg/ha,0.0
same,Preemergence herbicidal rating CASOB,CASOB (Sicklepod); 0.0625 kg/ha,2.0
same,Preemergence herbicidal rating CASOB,CASOB (Sicklepod); 0.1250 kg/ha,0.0
same,Preemergence herbicidal rating CASOB,CASOB (Sicklepod); 0.2500 kg/ha,4.0
same,Preemergence herbicidal rating CASOB,CASOB (Sicklepod); 0.5000 kg/ha,6.0
same,Preemergence herbicidal rating GALAP,GALAP (Galium); 0.0156 kg/ha,0.0
same,Preemergence herbicidal rating GALAP,GALAP (Galium); 0.0313 kg/ha,0.0
same,Preemergence herbicidal rating GALAP,GALAP (Galium); 0.0625 kg/ha,2.0
same,Preemergence herbicidal rating GALAP,GALAP (Galium); 0.1250 kg/ha,5.0
same,Preemergence herbicidal rating GALAP,GALAP (Galium); 0.2500 kg/ha,7.0
same,Preemergence herbicidal rating GALAP,GALAP (Galium); 0.5000 kg/ha,8.0
same,Preemergence herbicidal rating ECHCG,ECHCG (Barnyardgrass); 0.0156 kg/ha,0.0
same,Preemergence herbicidal rating ECHCG,ECHCG (Barnyardgrass); 0.0313 kg/ha,0.0
same,Preemergence herbicidal rating ECHCG,ECHCG (Barnyardgrass); 0.0625 kg/ha,1.0
same,Preemergence herbicidal rating ECHCG,ECHCG (Barnyardgrass); 0.1250 kg/ha,0.0
same,Preemergence herbicidal rating ECHCG,ECHCG (Barnyardgrass); 0.2500 kg/ha,0.0
same,Preemergence herbicidal rating ECHCG,ECHCG (Barnyardgrass); 0.5000 kg/ha,4.0
same,Preemergence herbicidal rating SETVI,"SETVI (Foxtail, Green); 0.0156 kg/ha",0.0
same,Preemergence herbicidal rating SETVI,"SETVI (Foxtail, Green); 0.0313 kg/ha",0.0
same,Preemergence herbicidal rating SETVI,"SETVI (Foxtail, Green); 0.0625 kg/ha",1.0
same,Preemergence herbicidal rating SETVI,"SETVI (Foxtail, Green); 0.1250 kg/ha",6.0
same,Preemergence herbicidal rating SETVI,"SETVI (Foxtail, Green); 0.2500 kg/ha",6.0
same,Preemergence herbicidal rating SETVI,"SETVI (Foxtail, Green); 0.5000 kg/ha",9.0
same,Preemergence herbicidal rating GLXMAW,[5]; 0.0156 kg/ha,0.0
same,Preemergence herbicidal rating GLXMAW,[5]; 0.0313 kg/ha,2.0
same,Preemergence herbicidal rating GLXMAW,[5]; 0.0625 kg/ha,2.0
same,Preemergence herbicidal rating GLXMAW,[5]; 0.1250 kg/ha,2.0
same,Preemergence herbicidal rating GLXMAW,[5]; 0.2500 kg/ha,6.0
same,Preemergence herbicidal rating GLXMAW,[5]; 0.5000 kg/ha,6.0
same,"herbicidal effect rating, CYPSE",CYPSE (Flatsedge); 0.0313 kg/ha,0.0
same,"herbicidal effect rating, CYPSE",CYPSE (Flatsedge); 0.0625 kg/ha,0.0
same,"herbicidal effect rating, CYPSE",CYPSE (Flatsedge); 0.1250 kg/ha,0.0
same,"herbicidal effect rating, CYPSE",CYPSE (Flatsedge); 0.2500 kg/ha,0.0
same,"herbicidal effect rating, SAGPY",[6]; 0.0313 kg/ha,2.0
same,"herbicidal effect rating, SAGPY",[6]; 0.0625 kg/ha,4.0
same,"herbicidal effect rating, SAGPY",[6]; 0.1250 kg/ha,5.0
same,"herbicidal effect rating, SAGPY",[6]; 0.2500 kg/ha,6.0
